In brackets after ≈: the same amount, converted by molar mass. Where a name gives a salt, the structure may show the parent alone. Read-outs that look alike come from different tables or passages of the source.
Columns and labels:
physchem [1] = format: physicochemical; details: thermodynamic from solid, visual
Protocol: An aliquot of 2.5 mg cholecalciferol and 2.5 mg cholecalciferol phosphate disodium salt prepared according to Example 1 were weighed into glass vials and 100 μL aliquots of the test solvents with different dielectric constants; water, MeOH:water (90:10), ethylene glycol, methanol (MeOH), propylene glycol (PG), ethanol (EtOH), poly(ethylene glycol) (PEG-400), and mineral oil were added until the sample was fully dissolved visually. A precise determination of the solubility was undertaken using high-performance liquid chromatography (HPLC). In the HPLC solubility studies an excess amount of cholecalciferol and cholecalciferol phosphate was added into 2 mL of each test solvent; water, MeOH:water (90:10), MeOH, and PG, EtOH and mineral oil. The solutions were left stirring overnight at room temperature, (RT), 22° C. The saturation of the solutions was confirmed by the visual appearance of crystals and the drug suspensions were filtered through 0.2 μm syringe filters, diluted, and the concentration of each sample was assessed using the HPLC method detailed below.

physchem [2] = format: physicochemical; details: for % Recovery, chemical stability with extraction fluid: 0.091 mg/mL; for recovery at 0.091 mg/mL: chemical stability with extraction fluid
Protocol: To validate the method of test agent recovery from the skin, solutions (1.0 mg/mL) of cholecalciferol phosphate were prepared in 100% PG and 100% water and the same concentration of cholecalciferol was prepared in 100% PG and PG:EtOH (50:50). The precise concentrations in these samples were analysed by HPLC using the method described above.
To assess the chemical stability of cholecalciferol and cholecalciferol phosphate in the donor solutions used in the Franz cell experiments, the 1.0 mg/mL of the samples prepared in the different solvents were incubated in a water bath at 37° C. for 24 h. In addition, to understand the chemical stability of cholecalciferol and cholecalciferol phosphate in the extraction solvents used in the skin deposition studies, a 1 mL of the sample of the drug in the different solvents was added into 10 mL of extraction fluid (PG:EtOH, 50:50 for cholecalciferol and MeOH:water, 90:10 for cholecalciferol phosphate). Samples with the extraction fluid were left in the water bath overnight at 37° C. and the sample concentration was analysed by HPLC method described above.

[3] = solubility in donor solution and thermodynamic activity (Table 4); format: physicochemical; details: for solubility: organic solvent or mixture, thermodynamic from solid; for Thermodynamic activity: proposed concentration in permeation studies relative to solubility
[4] = patch pre-formulation, saturated concentration in adhesive; format: physicochemical; details: DURO-TAK 87-2051 adhesive; phosphate disodium salt
Protocol: To each solution, 175 μL of the transdermal adhesive DURO-TAK 87-2051 (51.5 w/v %) was added, and vortexed. Then 2.0 μL of α-tocopherol and 2.5 μL of diethylene glycol monoethyl ether were added and vortexed. The visual solubility was assessed.
To this solution 4 mg of α-tocopherol in 3 mL ethyl acetate was added and 167 μL of the transdermal adhesive DURO-TAK 87-2051 (51.5 w/v %) in 7 mL ethyl acetate with 6 μL diethylene glycol monoethyl ether was also added.
Each solution (3×3 cm) was cast onto the backing (3M™ Scotchpak™ Polyester Backing Film Laminate 9730, UK) to determine the clarity, and the saturation limit of the test agents in the adhesive mixtures.

physchem [5] = format: physicochemical
Protocol: To validate the method of test agent recovery from the skin, solutions (1.0 mg/mL) of each vitamin D analogue were prepared in 100% PG. The precise concentrations in these samples were analysed by HPLC method described above. To assess the chemical stability of each test agent in the donor solutions used in the Franz cell experiments, 1.0 mg/mL of the samples prepared in 100% PG were incubated in a water bath at 37° C. for 24 h. In addition, to understand the chemical stability of each test agent in the extraction solvents used in the skin deposition studies, 1 mL of the drug sample in 100% PG was added into 10 mL of extraction fluid (MeOH for cholecalciferol, cholecalciferol phosphate acid, and MeOH:water, 90:10 for cholecalciferol phosphate disodium salt). Samples in PG (n=3) and samples in PG with the extraction fluid (n=3) were left in the water bath overnight at 37° C. and the sample concentration was analysed by the HPLC method described above. To assess whether the HPLC fluid had been impacted by any proteins that had leaked out of the skin, PG:water, 80:20 was added to donor and receiver chambers of porcine skin loaded Franz cells (n=3). A 5 mL sample of the receiver fluid was collected, and 25 μL of each test solution was added to this fluid and diluted to MeOH (1:1) and analysed by the HPLC method described previously. To verify the percentage of drug that could be recovered from the skin tissue, the skin sections were dermatomed (1 mm thickness) (n=3). The test solutions were spiked (50 μL) into a sample bottle containing the chopped dermatomed skin tissue. The samples containing the spiked drugs were left for 1 h for the drugs to absorb into the tissues. After the 1 h incubation period, 5 mL of extraction fluid (MeOH for cholecalciferol, cholecalciferol phosphate acid, and MeOH:water, 90:10 for cholecalciferol phosphate disodium salt) was added into each piece of the dermatomed skin tissue, then incubated in a shaking water bath for 1 h. The solutions were then tissue lysed by a tissue lyser for 40 min and homogenised by Ultra Turrax for 1 min and filtered using 0.45 μm syringe filters, centrifuged for 10 min at 13,000 rpm, and analysed by the HPLC method described above. In terms of cholecalciferol phosphate acid, after 1 h incubation and adding 5 mL extraction fluid, immediately the solutions with skin tissues were tissue lysed by a tissue lyser for 15 min. The solutions were then centrifuged for 10 min at 13,000 rpm and the supernatants were analysed by the HPLC method described above.

[6] = solubility of disodium salt in water by HPLC; format: physicochemical; details: thermodynamic from solid, distilled water
Protocol: Cholecalciferol phosphate disodium salt was added into 1.5 mL distilled water until it generated precipitation. The supersaturated solution was filtered into a glass bottle through a 0.45 μm syringe filter, diluted in water (1:100), then MeOH was added to make MeOH:water (90:10), and injected into the HPLC.

[7] = set-up: species or system porcine
Protocol: To verify the percentage of drug that could be recovered from each layer of the skin, each layer was isolated for a 2.19±0.21 cm^2 piece of skin, the drug was spiked into each layer, it was incubated and then recovered. For the SC tape stripping as described above was used to isolate the skin layer. A total of 20 pieces of tape were used to remove the SC and these strips were added into sample bottles. The epidermis was removed from the dermis, cut into small pieces, and placed into bottles. The test solutions were spiked (500 μL) into a sample bottle containing the SC and (200 μL) into the sample bottles containing the epidermis and dermis. The samples containing the spiked drugs were left for 1 h for the drugs to absorb into the tissues. After the 1 h incubation period, 10 mL of extraction fluid (PG:EtOH, 50:50 for cholecalciferol and MeOH:water, 90:10 for cholecalciferol phosphate) was added into SC, and 2 mL of extraction fluid was added into epidermis and dermis then incubated in a shaking water bath overnight at 32° C. The solutions with both epidermis and dermis were then homogenised by Ultra Turrax for 1 min and filtered using 0.2 μm syringe filters and analysed by HPLC method.

Structure (SMILES) | solubility (physchem [1]; organic solvent or mixture) [µg/mL] | solubility (physchem [1]; water) [µg/mL] | % Recovery, chemical stability with extraction fluid (physchem [2]) [%] | degradation (physchem [2]; 24 h, 1 mg/mL) [%] | recovery at 0.091 mg/mL (physchem [2]; % Recovery) [%] | solubility ([3]; PG, read-out: Solubility in PG) [µg/mL] | Thermodynamic activity [3] | saturated concentration in patch formulation (highest loading without precipitation) [4] [w/w %] | % Recovery, chemical stability with extraction fluid (physchem [5]; 0.091 mg/mL) [%] | % Recovery, chemical stability without extraction fluid (physchem [5]; 24 h, 1 mg/mL) [%] | solubility [6] [µg/mL] | solubility (physchem [1]; oil or lipid) [µg/mL] | recovery at 24 h, 1 mg/mL (physchem [2]; % Recovery, chemical stability without extraction fluid) [%] | % Recovery, drug extraction validation, Epidermis [7] [%] | solubility [3] [µg/mL] | recovery at 0.091 mg/mL (physchem [5]) [%] | recovery at 24 h, 1 mg/mL (physchem [5]) [%]
C=C1CC[C@H](OP(=O)(O)O)C/C1=C/C=C1\CCC[C@@]2(C)C1CC[C@@H]2[C@H](C)CCCC(C)C (some centres unmarked) [Cholecalciferol phosphate disodium salt, cholecalciferol phosphate disodium salt] | < 2000 | < 2500 | 76.01 ± 1.42 | 20 | 95.2 ± 5.88 | 2500 | 1.0 | 13.57 | 95.18 ± 4.82 | 81.87 ± 2.46 | 78700 |  |  |  |  |  | 
C=C1CC[C@H](O)C/C1=C/C=C1\CCC[C@]2(C)[C@@H]([C@H](C)CCCC(C)C)CC[C@@H]12 [Cholecalciferol, cholecalciferol, reference compound] |  |  | 90.52 ± 0.42 |  | 91.76 ± 0.87 |  | 0.8 |  |  |  |  | > 25000 | 90 | 104.86 ± 0.54 | 3150 (≈ 8.19 mM) | 91.97 ± 0.63 | 77.5 ± 7.05

Reference: patent US12473310B2, “Vitamin D3 phosphate and pharmaceutically acceptable salts thereof, pharmaceutical compositions comprising the compound and methods for preparing the compound” (King's College London, priority 2020, dated 2025)
